Measurements reported in ChEMBL document CHEMBL3525917, “Species difference in the mechanism of nonlinear pharmacokinetics of E2074, a novel sodium channel inhibitor, in rats, dogs, and monkeys” (Drug Metab Dispos, 2013).

Key:
[1] = Drug metabolism in cynomolgus monkey liver microsomes after 15 mins by Michaelis-Menten plot analysis; format: ADME, Macaca fascicularis
[2] = (§1) Drug metabolism in beagle dog liver microsomes after 30 mins by Michaelis-Menten plot analysis; format: ADME, Canis lupus familiaris; conditions: beagle, liver microsomes
[3] = test system: Liver microsome; assay: as §1; format: ADME, Canis lupus familiaris; conditions: microsomes, 0.5 h
[4] = (§2) Drug metabolism in beagle dog liver microsomes after 30 mins by biphasic component Michaelis-Menten plot analysis; format: ADME, Canis lupus familiaris; conditions: beagle, liver microsomes
[5] = test system: Liver microsome; assay: as §2; format: ADME, Canis lupus familiaris; conditions: microsomes, 0.5 h
[6] = species on record: Canis familiaris; assay: Hepatic blood clearance in beagle dog; format: ADME, organism-based, Canis lupus familiaris; conditions: in vivo
[7] = Drug metabolism in cynomolgus monkey intestinal microsomes by Michaelis-Menten plot analysis; format: ADME, Macaca fascicularis, Intestine, Microsome
[8] = Drug metabolism in Sprague-Dawley rat intestinal microsomes; format: ADME, Intestine, Microsome
[9] = Drug metabolism in beagle dog intestinal microsomes; format: ADME, Canis lupus familiaris, Intestine, Microsome
[10] = Fraction unbound in Sprague-Dawley rat plasma at 0.25 uM by equilibrium dialysis technique; format: ADME, cell-free
[11] = Fraction unbound in beagle dog plasma at 0.25 uM by equilibrium dialysis technique; format: ADME, cell-free, Canis lupus familiaris
[12] = Fraction unbound in cynomolgus monkey plasma at 0.25 uM by equilibrium dialysis technique; format: ADME, cell-free, Macaca fascicularis
[13] = species on record: Rattus norvegicus; assay: Hepatic blood clearance in Sprague-Dawley rat; format: ADME, organism-based; conditions: in vivo
[14] = Ratio of drug level in blood to plasma in Sprague-Dawley rat at 0.25 uM after 10 mins by equilibrium dialysis technique; format: ADME; conditions: blood and plasma
[15] = Ratio of drug level in blood to plasma in beagle dog at 0.25 uM after 10 mins by equilibrium dialysis technique; format: ADME, Canis lupus familiaris; conditions: blood and plasma
[16] = Ratio of drug level in blood to plasma in cynomolgus monkey at 0.25 uM after 10 mins by equilibrium dialysis technique; format: ADME, Macaca fascicularis; conditions: blood and plasma
[17] = Fraction unbound in Sprague-Dawley rat liver microsomes at 0.25 uM by equilibrium dialysis technique; format: ADME
[18] = Fraction unbound in beagle dog liver microsomes at 0.25 uM by equilibrium dialysis technique; format: ADME, Canis lupus familiaris
[19] = Fraction unbound in cynomolgus monkey liver microsomes at 0.25 uM by equilibrium dialysis technique; format: ADME, Macaca fascicularis
[20] = species on record: Rattus norvegicus; assay: Unbound intrinsic clearance in Sprague-Dawley rat; format: ADME, organism-based; conditions: in vivo
[21] = species on record: Canis familiaris; assay: Unbound intrinsic clearance in beagle dog; format: ADME, organism-based, Canis lupus familiaris; conditions: in vivo
[22] = test system: Cynomolgus monkey; assay: Unbound intrinsic clearance in cynomolgus monkey; format: ADME, organism-based, Macaca fascicularis; conditions: in vivo
[23] = test system: Cynomolgus monkey; assay: Hepatic blood clearance in cynomolgus monkey; format: ADME, organism-based, Macaca fascicularis; conditions: in vivo
[24] = Blood clearance in Sprague-Dawley rat; format: ADME, organism-based
[25] = Blood clearance in beagle dog; format: ADME, organism-based, Canis lupus familiaris
[26] = Blood clearance in cynomolgus monkey; format: ADME, organism-based, Macaca fascicularis
[27] = Cmax in double-cannulated Sprague-Dawley rat portal vein at 10 mg/kg, po; format: ADME, organism-based; parameters: dose 10 mg/kg, route oral
[28] = Cmax in double-cannulated Sprague-Dawley rat jugular vein at 10 mg/kg, po; format: ADME, organism-based; parameters: dose 10 mg/kg, route oral
[29] = Half life in cynomolgus monkey at 1 mg/kg, iv in presence of ketoconazole; format: ADME, organism-based, Macaca fascicularis; parameters: dose 1 mg/kg, route intravenous; conditions: in vivo
[30] = AUC in cynomolgus monkey at 1 mg/kg, iv in presence of ketoconazole; format: ADME, organism-based, Macaca fascicularis; parameters: dose 1 mg/kg, route intravenous; conditions: plasma
[31] = Clearance in cynomolgus monkey at 1 mg/kg, iv in presence of ketoconazole; format: ADME, organism-based, Macaca fascicularis; parameters: dose 1 mg/kg, route intravenous; conditions: in vivo
[32] = Volume of distribution at steady state in cynomolgus monkey at 1 mg/kg, iv in presence of ketoconazole; format: ADME, organism-based, Macaca fascicularis; parameters: dose 1 mg/kg, route intravenous; conditions: in vivo, read-out: Vdss
[33] = test system: Cynomolgus monkey; assay: Ratio of dose normalized AUC in cynomolgus monkey at 1 mg/kg, iv in presence of ketoconazole to dose normalized AUC in cynomolgus monkey at 1 mg/kg, iv; format: ADME, organism-based, Macaca fascicularis; conditions: in vivo
[34] = Tmax in cynomolgus monkey at 3 mg/kg, po in presence of ketoconazole; format: ADME, organism-based, Macaca fascicularis; parameters: dose 3 mg/kg, route oral; conditions: in vivo
[35] = Cmax in cynomolgus monkey at 3 mg/kg, po in presence of ketoconazole; format: ADME, organism-based, Macaca fascicularis; parameters: dose 3 mg/kg, route oral; conditions: in vivo
[36] = Half life in cynomolgus monkey at 3 mg/kg, po in presence of ketoconazole; format: ADME, organism-based, Macaca fascicularis; parameters: dose 3 mg/kg, route oral; conditions: in vivo
[37] = AUC in cynomolgus monkey at 3 mg/kg, po in presence of ketoconazole; format: ADME, organism-based, Macaca fascicularis; parameters: dose 3 mg/kg, route oral; conditions: plasma
[38] = test system: Cynomolgus monkey; assay: Ratio of dose normalized Cmax in cynomolgus monkey at 3 mg/kg, po in presence of ketoconazole to dose normalized Cmax in cynomolgus monkey at 3 mg/kg, po; format: ADME, organism-based, Macaca fascicularis; conditions: in vivo
[39] = test system: Cynomolgus monkey; assay: Ratio of dose normalized AUC in cynomolgus monkey at 3 mg/kg, po in presence of ketoconazole to dose normalized AUC in cynomolgus monkey at 3 mg/kg, po; format: ADME, organism-based, Macaca fascicularis; conditions: in vivo
[40] = Tmax in cynomolgus monkey at 10 mg/kg, po in presence of ketoconazole; format: ADME, organism-based, Macaca fascicularis; parameters: dose 10 mg/kg, route oral; conditions: in vivo
[41] = Cmax in cynomolgus monkey at 10 mg/kg, po in presence of ketoconazole; format: ADME, organism-based, Macaca fascicularis; parameters: dose 10 mg/kg, route oral; conditions: in vivo
[42] = Half life in cynomolgus monkey at 10 mg/kg, po in presence of ketoconazole; format: ADME, organism-based, Macaca fascicularis; parameters: dose 10 mg/kg, route oral; conditions: in vivo
[43] = AUC in cynomolgus monkey at 10 mg/kg, po in presence of ketoconazole; format: ADME, organism-based, Macaca fascicularis; parameters: dose 10 mg/kg, route oral; conditions: plasma
[44] = test system: Cynomolgus monkey; assay: Ratio of dose normalized Cmax in cynomolgus monkey at 10 mg/kg, po in presence of ketoconazole to dose normalized Cmax in cynomolgus monkey at 10 mg/kg, po; format: ADME, organism-based, Macaca fascicularis; conditions: in vivo
[45] = test system: Cynomolgus monkey; assay: Ratio of dose normalized AUC in cynomolgus monkey at 10 mg/kg, po in presence of ketoconazole to dose normalized AUC in cynomolgus monkey at 10 mg/kg, po; format: ADME, organism-based, Macaca fascicularis; conditions: in vivo
[46] = molecular target: T1, MDR1A (ABCB1, P-glycoprotein) (Mus musculus, UniProt P21447); assay: Activity of mouse MDR1A expressed in pig LLC-PK1 cells assessed as permeability from apical to basolateral side at 1 uM after 2 hrs; format: ADME, cell-based; conditions: read-out: permeability
T1 sequence (P21447 whole entry): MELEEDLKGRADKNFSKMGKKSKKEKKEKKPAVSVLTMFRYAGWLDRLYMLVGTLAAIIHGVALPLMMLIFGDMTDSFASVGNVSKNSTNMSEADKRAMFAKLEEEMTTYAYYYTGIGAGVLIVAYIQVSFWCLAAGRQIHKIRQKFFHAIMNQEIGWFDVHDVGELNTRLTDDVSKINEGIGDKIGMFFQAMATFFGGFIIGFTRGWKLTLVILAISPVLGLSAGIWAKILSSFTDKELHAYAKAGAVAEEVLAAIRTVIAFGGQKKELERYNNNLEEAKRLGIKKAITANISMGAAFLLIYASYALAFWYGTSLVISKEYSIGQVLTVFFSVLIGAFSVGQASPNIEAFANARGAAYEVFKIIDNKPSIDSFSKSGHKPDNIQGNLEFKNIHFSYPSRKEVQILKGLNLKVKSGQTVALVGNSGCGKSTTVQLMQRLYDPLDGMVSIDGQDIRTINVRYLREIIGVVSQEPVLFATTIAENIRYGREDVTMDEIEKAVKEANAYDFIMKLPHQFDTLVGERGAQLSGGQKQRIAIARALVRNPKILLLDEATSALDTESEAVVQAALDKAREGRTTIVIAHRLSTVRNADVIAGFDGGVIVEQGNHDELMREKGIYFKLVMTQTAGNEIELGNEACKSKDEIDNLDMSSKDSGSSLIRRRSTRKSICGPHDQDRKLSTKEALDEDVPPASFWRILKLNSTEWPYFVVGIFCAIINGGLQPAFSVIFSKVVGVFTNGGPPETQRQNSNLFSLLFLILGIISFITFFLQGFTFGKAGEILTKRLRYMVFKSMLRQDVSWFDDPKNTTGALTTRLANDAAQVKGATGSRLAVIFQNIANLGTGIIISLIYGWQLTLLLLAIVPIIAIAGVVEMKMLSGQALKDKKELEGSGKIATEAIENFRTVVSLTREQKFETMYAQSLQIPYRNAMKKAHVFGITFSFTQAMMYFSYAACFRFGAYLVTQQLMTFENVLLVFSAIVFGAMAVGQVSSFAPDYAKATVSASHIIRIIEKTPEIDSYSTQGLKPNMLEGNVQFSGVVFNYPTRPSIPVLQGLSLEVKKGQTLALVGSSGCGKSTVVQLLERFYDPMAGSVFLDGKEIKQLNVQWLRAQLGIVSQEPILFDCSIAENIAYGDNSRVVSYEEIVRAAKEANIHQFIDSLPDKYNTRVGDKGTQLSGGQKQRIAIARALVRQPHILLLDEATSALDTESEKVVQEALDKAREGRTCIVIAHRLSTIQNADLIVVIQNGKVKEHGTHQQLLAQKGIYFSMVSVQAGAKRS

[47] = molecular target: T1, MDR1A (ABCB1, P-glycoprotein); assay: Activity of mouse MDR1A expressed in pig LLC-PK1 cells assessed as permeability from basolateral to apical side at 1 uM after 2 hrs; format: ADME, cell-based; conditions: read-out: permeability
[48] = Half life in Sprague-Dawley rat at 1 mg/kg, iv; format: ADME, organism-based; parameters: dose 1 mg/kg, route intravenous; conditions: in vivo
[49] = AUC in Sprague-Dawley rat at 1 mg/kg, iv; format: ADME, organism-based; parameters: dose 1 mg/kg, route intravenous; conditions: plasma
[50] = Clearance in Sprague-Dawley rat at 1 mg/kg, iv; format: ADME, organism-based; parameters: dose 1 mg/kg, route intravenous; conditions: in vivo
[51] = Tmax in cynomolgus monkey at 3 mg/kg, po; format: ADME, organism-based, Macaca fascicularis; parameters: dose 3 mg/kg, route oral; conditions: in vivo
[52] = Volume of distribution at steady state in Sprague-Dawley rat at 1 mg/kg, iv; format: ADME, organism-based; parameters: dose 1 mg/kg, route intravenous; conditions: in vivo, read-out: Vdss

Compound: Cc1nn(C[C@H](F)CN2C3CCC2CC(OCc2cccc(F)c2)C3)c(=O)n1C (some centres undefined)
- Km at 0.25 h ([1]; liver microsomes): 42.4 µM
- Vmax ([1]; microsomes, 0.25 h): 3.58 nmol/min/mg
- Km at 0.5 h [2]: 0.41 µM
- Vmax [3]: 0.07 nmol/min/mg
- Km at 0.5 h [4]: 21.5 µM
- Vmax [5]: 0.72 nmol/min/mg
- CLH [6]: 30.5 mL/min/kg
- Km ([7]; intestinal microsomes): 34.6 µM
- Vmax ([7]; microsomes): 0.66 nmol/min/mg
- Drug metabolism [8]: metabolite_not_detected
- Drug metabolism [9]: metabolite_not_detected
- fraction unbound at 0.25 µM [10]: 0.675
- fraction unbound at 0.25 µM [11]: 0.601
- fraction unbound at 0.25 µM [12]: 0.676
- CLH [13]: 53.2 mL/min/kg
- blood plasma ratio at 10 min, 0.25 µM [14]: 0.89
- blood plasma ratio at 10 min, 0.25 µM [15]: 0.86
- blood plasma ratio at 10 min, 0.25 µM [16]: 1.01
- fraction unbound at 0.25 µM [17]: 1
- fraction unbound at 0.25 µM [18]: 1
- fraction unbound at 0.25 µM [19]: 1
- CL free [20]: 196 µL/min/mg
- CL free [21]: 208 µL/min/mg
- CL free [22]: 84 µL/min/mg
- CLH [23]: 33 mL/min/kg
- clearance [24]: 60 mL/min/kg
- clearance [25]: 32.8 mL/min/kg
- clearance [26]: 22.3 mL/min/kg
- Cmax [27]: 10600 ng/mL
- Cmax [28]: 1040 ng/mL
- half-life [29]: 1.96 h
- AUC [30]: 820 ng·h/mL
- clearance [31]: 20.3 mL/min/kg
- Vd [32]: 3.29 L/kg
- Ratio [33]: 1
- Tmax [34]: 1 h
- Cmax [35]: 400 ng/mL
- half-life [36]: 2.2 h
- AUC [37]: 1550 ng·h/mL
- Ratio [38]: 1
- Ratio [39]: 1
- Tmax [40]: 2 h
- Cmax [41]: 1520 ng/mL
- half-life [42]: 2.73 h
- AUC [43]: 7090 ng·h/mL
- Ratio [44]: 4.5
- Ratio [45]: 6.3
- Papp A→B at 2 h, 1 µM [46]: 9.67 ×10⁻⁶ cm/s
- Papp B→A at 2 h, 1 µM [47]: 30.4 ×10⁻⁶ cm/s
- half-life [48]: 0.85 h
- AUC [49]: 310 ng·h/mL
- clearance [50]: 53.5 mL/min/kg
- Tmax [51]: 1 h
- Vd [52]: 2.54 L/kg
